One may read the Kb as the equilibrium dissociation constant of an antagonist, usually derived from a functional assay. The low end stands for higher antagonist affinity, the high end for lower antagonist affinity. The pIC50 is −log10 of the IC50, conventionally taken in molar units. Lower therefore signals a high IC50.

pIC50: −log10 of the molar value.

This passage reports Kb and IC50 results from article PMC4897628, “CRF receptor 1 antagonism and brain distribution of active components contribute to the ameliorative effect of rikkunshito on stress-induced anorexia” (Scientific Reports, 2016).

Experiment [1] addresses T1, CRFR1 (human CRF receptor 1, corticotropin-releasing factor receptor 1) (Homo sapiens, UniProt P34998).
T1 construct: gene CRHR1; receptor expressed in transfected CHO cells (Cerep)
T1 sequence (P34998 24-415): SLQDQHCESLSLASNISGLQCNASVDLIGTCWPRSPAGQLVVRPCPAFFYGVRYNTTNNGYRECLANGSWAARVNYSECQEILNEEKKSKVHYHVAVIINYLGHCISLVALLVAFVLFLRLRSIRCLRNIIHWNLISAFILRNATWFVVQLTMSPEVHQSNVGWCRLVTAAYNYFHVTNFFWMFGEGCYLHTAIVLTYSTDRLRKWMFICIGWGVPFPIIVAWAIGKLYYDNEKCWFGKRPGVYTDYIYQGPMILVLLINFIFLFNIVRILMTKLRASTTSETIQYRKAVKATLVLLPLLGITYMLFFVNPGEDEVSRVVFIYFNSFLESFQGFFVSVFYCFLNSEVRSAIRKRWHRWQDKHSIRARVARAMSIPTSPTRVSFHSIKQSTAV
The experiment is described as follows: HTRF cAMP assay, antagonist mode, transfected CHO cells; KB from IC50 by modified Cheng-Prusoff equation. It is filed as cell-based. An excerpt: HTRF cAMP assay, antagonist mode, transfected CHO cells; KB from IC50 by modified Cheng-Prusoff equation on CRFR1 (human CRF receptor 1, corticotropin-releasing factor receptor 1)

Experiment [2] addresses T1, CRFR1 (human CRF receptor 1, corticotropin-releasing factor receptor 1). Description: HTRF cAMP assay, antagonist mode, transfected CHO cells. It is filed as cell-based. An excerpt:
HTRF cAMP assay, antagonist mode, transfected CHO cells on CRFR1 (human CRF receptor 1, corticotropin-releasing factor receptor 1)
On the technique in general: TR-FRET usually uses a lanthanide donor and a delayed reading to cut background.

Turning to `COc1c(CC=C(C)C)c(O)cc2oc(=O)c(-c3ccc(O)cc3O)cc12` [Glycycoumarin], the antagonist equilibrium constant (Kb) in experiment [1] was 1.3 µM. The negative logarithm of the IC50 (pIC50) in experiment [2] is 4.28.
The corresponding values for `CC1(C)[C@@H](O)CC[C@]2(C)[C@H]3C(=O)C=C4[C@@H]5C[C@@](C)(C(=O)O)CC[C@]5(C)CC[C@@]4(C)[C@]3(C)CC[C@@H]12` [Glycyrrhetic acid] are 0.35 µM and 4.85.
As for `COc1ccc([C@@H]2CC(=O)c3c(O)cc(O)cc3O2)cc1O` [Hesperetin], in experiment [1], the Kb worked out at 45 µM. Moreover, the negative-log IC50 (pIC50) in experiment [2] is 3.89.
The like results for `O=C(/C=C/c1ccc(O)cc1)c1ccc(O)cc1O` [Isoliquiritigenin] were, in that order, 0.67 µM and 4.55.
`COc1ccc(-c2cc(=O)c3c(OC)c(OC)c(OC)c(OC)c3o2)cc1OC` [Nobiletin] gave an antagonist equilibrium constant (Kb) in experiment [1] of 0.36 µM. Besides, the negative-log IC50 (pIC50) in experiment [2] was 4.82.
Take `COc1ccc(-c2cc(=O)c3c(OC)c(OC)c(OC)c(OC)c3o2)cc1` [Tangeretin]: in experiment [1], the Kb was found to be 1.5 µM. In experiment [2], this molecule had a negative-log IC50 (pIC50) of 4.22.
The like results for `CCCCCCC/C=C/C(=O)CCc1ccc(O)c(OC)c1` [[8]-Shogaol] were, in that order, 1.8 µM and 4.13.
